# Source: paper PMC4794788, “Cell‐free synthesis of isotopically labelled peptide ligands for the functional characterization of G protein‐coupled receptors” (FEBS Open Bio, 2015)
# Where “and” joins values, the source holds several entries; their conditions need not be identical. Equal values may be shown once. Entries after “also recorded” stand apart in the source; their conditions may differ.
# B1: C5a^CF: cell‐free‐synthesized complement 5a containing the N‐terminal 6xHis tag and TEV cleavage site (protein, UniProt P01031 678-751, looked up)
# C5a anaphylatoxin: TLQKKIEEIAAKYKHSVVKKCCYDGACVNNDETCEQRAARISLGPRCIKAFTECCVVASQLRANISHKDMQLGR
# modifications: C5a anaphylatoxin N-terminal 6xHis tag and TEV site
# notes: cell‐free‐synthesized complement 5a containing the N‐terminal 6xHis tag and TEV cleavage site
# B2: ^125I‐C5a: commercially available ^125I‐C5a (protein, UniProt P01031 678-751, looked up)
# C5a anaphylatoxin: B1 C5a anaphylatoxin
# modifications: C5a anaphylatoxin 125I-labelled
# notes: commercially available ^125I‐C5a
# Columns and labels:
# [1] = Solubility/precipitation of cell‐free translated peptide in the reaction mix; assay type: physicochemical; details: soluble vs pellet fraction
# Procedure: Complement 5a is flanked by an N‐terminal 6x His tag followed by a tobacco etch virus (TEV) cleavage site. […] Expression of both constructs is controlled by a T7 promoter. Cell‐free synthesis was accomplished using a homemade S30 extract from E. coli 6. The extract was prepared from the E. coli A19 strain, described in detail in 6. The T7 RNA polymerase was produced and purified as published 50. Cell‐free reactions were executed in continuous exchange mode by using different sizes of D‐Tube™ dialyzers (Merck Millipore) (mini for reactions containing labelled amino acids and maxi for reactions with unlabeled amino acids) and a 1 : 17 ratio between reaction (RM) and feeding mix (FM). Mini D‐tube™ dialyzers were placed into 2 mL tubes filled with feeding mix, maxi dialyzers into 50 mL tubes, respectively. […] Reactions were incubated at 30 °C, 100 rpm in an Infors Multitron shaker incubator (Infors, Bottmingen, Switzerland) overnight. Cell‐free reactions were analysed by SDS/PAGE using 10% Bis/Tris Novex NuPAGE gels (Life Technologies).
# [2] = tested on: C5aR; details: literature comparison; cited from earlier work
# Excerpt: Table 1 Binding parameters of cell‐free synthesized radioligands | column: Literature IC50 [nM]
# [3] = molecular target: T1, human complement 5a receptor (C5aR) (Homo sapiens, UniProt P21730); test: Competition binding against [^3H]‐C5a^CF at C5aR in Sf9 membranes; details: read-out: KI (inhibition constant)
# T1 construct: 10x His (N); FLAG (N); StrepII (C); made in house; host or cells: Sf9 insect cells (recombinant baculovirus, pOET5 / flashBAC); membrane preparation
# T1 sequence (P21730 1-350): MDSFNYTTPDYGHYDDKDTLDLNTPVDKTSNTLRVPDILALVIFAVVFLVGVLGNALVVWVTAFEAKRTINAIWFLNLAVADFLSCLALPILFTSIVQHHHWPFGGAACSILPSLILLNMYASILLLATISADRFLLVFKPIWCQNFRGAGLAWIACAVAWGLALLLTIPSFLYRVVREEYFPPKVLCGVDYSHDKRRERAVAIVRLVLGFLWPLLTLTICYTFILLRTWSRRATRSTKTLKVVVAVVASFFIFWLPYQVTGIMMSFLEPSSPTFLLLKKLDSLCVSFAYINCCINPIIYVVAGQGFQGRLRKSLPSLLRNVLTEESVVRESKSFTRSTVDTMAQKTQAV
# Excerpt: The complement 5a receptor was coproduced with Gαi2 in Sf9 insect cells. The cDNA encoding the human complement 5a receptor flanked by an N‐terminal 10x His and FLAG tag and a C‐terminal StrepII tag was cloned into the pOET5 transfer vector (Oxford Expression Technologies, Oxford, UK). pOET5 contains two expression cassettes, the receptor is expressed under the control of a polyhedron promoter; Gαi2 expression is regulated by a p10 promoter. Recombinant baculoviruses were generated with the flashBAC protein expression system (Oxford Expression Technologies) according to manufacturer's instructions. […] Total membrane protein content was determined by the bicinchoninic acid (BCA) method using bovine serum albumin as the standard.
# For the determination of binding parameters, membranes containing the respective receptors (10–50 μg total membrane protein) were incubated with cell‐free synthesized tritium‐labelled ligands in varying concentrations. Binding was terminated by rapid filtration over glass fibre filters pretreated with 0.3% polyethyleneimine using a Brandel harvester (Brandel, Alpha Biotech Ltd, Killearn, UK) and analysed by liquid scintillation counting. […]
# Data are represented as means ± SEM from three or two independent experiments performed in triplicate and analysed in […] […]
# [4] = molecular target: endothelin receptors (Table 1: compared with ETBR); details: determined with ^125I‐ET‐1 on receptors from native human tissues; literature comparison; cited from earlier work
# [5] = molecular target: C5aR; details: C5aR in native human tissues; literature comparison; cited from earlier work
# Procedure: Table 1 Binding parameters of cell‐free synthesized radioligands | column: Literature KD [nM] || As the interaction between C5a and its receptor is mainly mediated by the disulphide bridged core region of C5a (residues 21–55, 22) and the C‐terminal region (especially Arg^74 30) the N‐terminal hexa‐histidine tag was not removed. The cell‐free synthesized ligand binds to the complement 5a receptor with a dissociation constant of 1.18 ± 0.27 nM (Fig. 4A), which corresponds to values determined by Gerard and Gerard for C5aR in native human tissues (1 nM 31, Table 1). Competition experiments with the unlabelled small molecule inverse agonist NDT 9513727 and the peptide antagonist H2N‐ChaW resu ...
# [6] = with DsbA and reduced glutathione (GSH) replacing DTT
molecule,measurement,setting,value
"CC[C@H](C)[C@H](NC(=O)[C@H](CC(=O)O)NC(=O)[C@H](CC(C)C)NC(=O)[C@H](Cc1cnc[nH]1)NC(=O)[C@@H]1CSSC[C@H](N)C(=O)N[C@@H](CO)C(=O)N[C@H]2CSSC[C@H](NC(=O)[C@H](CCC(=O)O)NC(=O)[C@H](CCCCN)NC(=O)[C@H](CC(=O)O)NC(=O)[C@H](CCSC)NC(=O)[C@H](CC(C)C)NC(=O)[C@H](CO)NC(=O)[C@H](CO)NC2=O)C(=O)N[C@@H](C(C)C)C(=O)N[C@@H](Cc2ccc(O)cc2)C(=O)N[C@@H](Cc2ccccc2)C(=O)N1)C(=O)N[C@H](C(=O)N[C@@H](Cc1c[nH]c2ccccc12)C(=O)O)[C@@H](C)CC [Endothelin‐1, reference compound]",Solubility/precipitation of cell‐free product,"[1]; reducing conditions (DTT), without DsbA, listed as ET‐1",strong precipitation; also recorded: heavy precipitation
same,Solubility/precipitation of cell‐free product,[1]; [6],did not display any precipitates
"CCCCn1c(-c2ccccc2)nc(-c2ccccc2)c1CN(Cc1ccc2c(c1)OCO2)Cc1ccc2c(c1)OCO2 [NDT 9513727, N,N‐Bis(1,3‐benzodioxol‐5‐ylmethyl)‐1‐butyl‐2,4‐diphenyl‐1H‐imidazole‐5‐methanamine]",IC50,[2],11.6 ± 1 nM
same,Ki,[3],169 nM and 54.5 nM
^125I‐ET‐1: ^125I‐labelled endothelin‐1,Kd,[4],0.33 nM
B1,Solubility/precipitation of cell‐free product,"[1]; reducing conditions (DTT), without DsbA",strong precipitation; also recorded: insoluble and can only be detected in the pellet fraction; also recorded: heavy precipitation
same,Solubility/precipitation of cell‐free product,[1]; [6],did not display any precipitates; also recorded: can be detected in the soluble fraction
B2,Kd,[5],1 nM
